Target: T1, STK39 (STLK3) (Homo sapiens, UniProt Q9UEW8)
T1 construct: purchased Thermo Fisher Scientific (Life Technologies) SelectScreen
Experiment: SelectScreen LanthaScreen
Format: binding
Conditions: read-out: % displacement
In short: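 Percent values come from Thermo SelectScreen profiling of NU5455, combining activity and binding assays. CSF1R was run in Z'LYTE format at Km app ATP, and CAMK1 in Adapta format with ATP listed at 10.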

Q: Which inhibition at 1 µM does the source give for `CN(C(=O)CN1CCOCC1)c1ccc2sc3c(-c4cccc5c(=O)cc(N6CC7CCC(C6)O7)oc45)cccc3c2c1` [NU5455] here?
A: The inhibition at 1 µM was 16.2%.

Reference: paper PMC6934184, “Selective DNA-PKcs inhibition extends the therapeutic index of localized radiotherapy and chemotherapy” (The Journal of Clinical Investigation, 2019)
